Laboratory results as given in US8158799B2, “Hydroxyquinoline derivatives” (Merck Patent Gesellschaft MIT Meschraenkter Haftung, priority 2005, dated 2012).
pIC50: −log10 of the molar value.

System: colon carcinoma cell lines
Test: Inhibition of the proliferation of tumour cells in vitro (propidium iodide uptake)
Type: cell-based
Details: 72 h, 10,000 cells per well, 3 days incubation at 37° C., propidium iodide/NP40 fluorescence, % of control
Source text: The antiproliferative action can be tested in an HCT116 proliferation assay.
The present experimental description describes the inhibition of tumour cell proliferation by active ingredients.
The cell proliferation is estimated by measurement of the uptake of propidium iodide. […] It is prevented from entering healthy cells. However, if cells have been killed by addition of the detergent NP40, cell membrane and nuclear membrane become permeable. PI attaches itself to the DNA of the cell nuclei and fluoresces in this complex. This fluorescence is measured in the fluorimeter.
commercially available colon carcinoma cell lines
10,000 cells are plated out per well, in a volume of 180 μl, in a 96-hole plate. The outer rows A1-12, 1A-H, 12A-H and H1-12 are only filled with 200 μl of medium or buffer.
The cells are incubated for 24 hours, at 37° C. and 10% CO2 gassing.
In order to test active substances, the corresponding dilutions must first be produced and assigned to the wells. The scheme of a 1:3 dilution indicated here as an example can be varied correspondingly as desired. The scheme described is designed for 4 test substances.
20 μl of medium, solvent dilution or the corresponding dilution of the positive control (IC50) are pipetted into these holes.
Substance groups (column B-G, wells 2-9): 20 μl of substance dilution are pipetted into these holes.
147 μl of medium is introduced into each of the wells of row B of the extra plate in columns 1, 2, 3, 4, and 3 μl of the test substance are added (=300 μM). 100 μl of medium are introduced into rows C-G, columns 1-4. 50 μl are then transferred into row C using a multichannel pipette, mixed 8×, and 50 μl are then transferred from this row into row D. This is continued correspondingly until row G has been reached, in which, after mixing, 50 μl of the dilution are removed and discarded. 100 μl of each desired dilution are now located in the extra plate, and it is now only necessary to transfer 20 μl directly into the test plate.
The plate is incubated at 37° C. and 10% CO2 gassing for 3 days.
The cells multiplying in this time are determined by means of propidium iodide.
20 μl of PI stock solution and 10 μl of NP40 stock solution are required per well. Since each plate has 72 wells charged with PI and with NP40, 1440 μl of the PI stock solution and 720 μl of the NP40 stock solution are required per plate. Taking into account pipetting losses, 1.8 ml of PI stock solution are thus taken and mixed with 0.9 ml of the NP40 stock solution immediately before pipetting in. 30 μl of the PI/NP40 mixture are now pipetted into each of the wells of the plate, each of which contain 200 μl of medium. The plate is subsequently placed in the incubator for 2 hours.
The plate(s) is measured in a fluorescence photometer at a wavelength Ex. 520 nm and Em of 620 nm. The background (=medium+PI) is subtracted from all values, which are subsequently averaged (double values) and expressed or calculated in % of control.
An IC50 (half-maximum action) can now be calculated using a statistics program such as, for example, RS1.
Prepare the desired stock solution at […] in DMSO. Adjust to ten times the concentration to be tested in the cell culture (see above) by dilution in culture medium.

pIC50 | Compound
6.68 | CCOc1ccccc1NC(=O)Nc1ccc2cccnc2c1O [Compound A20, 1-(2-Ethoxyphenyl)-3-(8-hydroxyquinolin-7-yl)-urea]
5.82 | O=C(Nc1ccc(C(F)(F)F)cc1)Nc1ccc2cccnc2c1O [Compound A19, 1-(8-Hydroxyquinolin-7-yl)-3-(4-trifluoromethylphenyl)urea]
7.05 | O=C(CC(c1ccccc1)c1ccccc1)Nc1cc(Cl)c2cccnc2c1O [Compound A1, N-(5-chloro-8-hydroxyquinolin-7-yl)-3,3-diphenylpropionamide]
5.96 | O=C(Nc1cc(Cl)c2cccnc2c1O)C(Cc1ccccn1)c1ccccc1 (stereo not drawn) [Compound A3, N-(5-chloro-8-hydroxyquinolin-7-yl)-2-phenyl-3-pyridin-2-ylpropionamide]
5.68 | O=C(Nc1cc(Cl)c2cccnc2c1O)C(c1ccccc1)c1ccccc1 [Compound A2, N-(5-chloro-8-hydroxyquinolin-7-yl)-2,2-diphenylacetamide]
7.05 | O=C(Nc1cc(Cl)c2cccnc2c1O)NC(c1ccccc1)c1ccccn1 (stereo not drawn) [Compound A14, 1-(5-chloro-8-hydroxyquinolin-7-yl)-3-(phenylpyridin-2-ylmethyl)urea]
